From patent US20170305857A1, “N-ACYLPIPERIDINE ETHER TROPOMYOSIN-RELATED KINASE INHIBITORS” (Pfizer Limited, priority 2014, published 2017)
pIC50: −log10 of the molar value.

Each compound was assayed against T1, recombinant His-tagged cytoplasmic domains of TRKA receptor (NTRK1, PV3144, aa 441-796) (Homo sapiens, UniProt P04629) (assay: Isolated TRK enzyme assay (HTRF KinEASE-TK, PV3144 TrkA enzyme assay)). Conditions: 4 nM enzyme, 40 uM ATP, 35 min, arithmetic mean where more than one reading.
T1 construct: aa 441-796; His; purchased Invitrogen PV3144
Assay type: biochemical
Procedure, shortened: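 Enzyme and ATP were preincubated with compound for 20 min at room temperature in buffer with 10 mM MgCl and 2 mM DTT. TK-substrate-Biotin was then added (1 uM final) and the reaction run for an enzyme-specific optimized time. Phosphorylation was read by HTRF, and IC50 values came from sigmoid fits of percent inhibition normalized to plate controls, averaged over replicate readings.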

T1 sequence (P04629 441-796): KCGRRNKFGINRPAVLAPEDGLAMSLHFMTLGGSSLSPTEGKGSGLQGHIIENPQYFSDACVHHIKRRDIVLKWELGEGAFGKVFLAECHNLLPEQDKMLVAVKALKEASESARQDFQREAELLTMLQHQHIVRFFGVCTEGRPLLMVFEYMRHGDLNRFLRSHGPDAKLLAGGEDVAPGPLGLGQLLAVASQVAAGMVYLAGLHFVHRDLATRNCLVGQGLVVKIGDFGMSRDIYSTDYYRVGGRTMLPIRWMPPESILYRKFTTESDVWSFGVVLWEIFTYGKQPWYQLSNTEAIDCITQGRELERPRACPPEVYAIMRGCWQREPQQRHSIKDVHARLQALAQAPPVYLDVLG

Compound | pIC50
Cn1cnc(-c2ccc(OC3CCN(C(=O)Cc4ccc(OC(F)(F)F)cc4)C4CC34)c(C(N)=O)c2)c1 (stereo not drawn) [Example 159, 5-(1-methyl-1H-imidazol-4-yl)-2-[(2-{[4-(trifluoromethoxy)phenyl]acetyl}-2-azabicyclo[4.1.0]hept-5-yl)oxy]benzamide] | 7.75
NC(=O)c1cc(-n2cc(CO)cn2)cnc1O[C@@H]1CCN(C(=O)Cc2ccc(OC(F)(F)F)cc2)C[C@@H]1F [Example 160, 2-{[(3S,4R)-3-fluoro-1-{[4-(trifluoromethoxy)phenyl]acetyl}piperidin-4-yl]oxy}-5-[4-(hydroxymethyl)-1H-pyrazol-1-yl]pyridine-3-carboxamide] | 8.07
Cc1cn(-c2cnc(O[C@@H]3CCN(C(=O)Cc4ccc(OC(F)(F)F)cc4)C[C@@H]3F)c(C(N)=O)c2)cn1 [Example 162, 2-(((3S,4R)-3-fluoro-1-(2-(4-(trifluoromethoxy)phenyl)acetyl)piperidin-4-yl)oxy)-5-(4-methyl-1H-imidazol-1-yl)nicotinamide] | 7.91
CC(C)(O)Cn1cc(-c2cnc(O[C@H]3CCN(C(=O)Cc4ccc(OC5CC5)cn4)C[C@@H]3F)c(C(N)=O)c2)cn1 [Example 163, 2-{[(3S,4S)-1-{[5-(cyclopropyloxy)pyridin-2-yl]acetyl}-3-fluoropiperidin-4-yl]oxy}-5-[1-(2-hydroxy-2-methylpropyl)-1H-pyrazol-4-yl]pyridine-3-carboxamide] | 7.78
CS(=O)(=O)Cn1cc(-c2cc(C(N)=O)c(O[C@H]3CCN(C(=O)Cc4ccc(OC5CC5)cc4)C[C@@H]3F)cn2)cn1 [Example 165, 5-{[(3S,4S)-1-{[4-(cyclopropyloxy)phenyl]acetyl}-3-fluoropiperidin-4-yl]oxy}-2-{1-[(methylsulfonyl)methyl]-1H-pyrazol-4-yl}pyridine-4-carboxamide] | 7.80
CS(=O)(=O)Cn1cc(-c2cc(C(N)=O)c(O[C@H]3CCN(C(=O)Cc4ccc(OC(F)(F)F)cc4)C[C@@H]3F)cn2)cn1 [Example 166, 5-{[(3S,4S)-3-fluoro-1-{[4-(trifluoromethoxy)phenyl]acetyl}piperidin-4-yl]oxy}-2-{1-[(methylsulfonyl)methyl]-1H-pyrazol-4-yl}pyridine-4-carboxamide] | 7.89
Cc1n[nH]c(C)c1-c1cnc(O[C@H]2CCN(C(=O)Cc3ccc(OC4CC4)cn3)C[C@@H]2F)c(C(N)=O)c1 [Example 167, 2-{[(3S,4S)-1-{[5-(cyclopropyloxy)pyridin-2-yl]acetyl}-3-fluoropiperidin-4-yl]oxy}-5-(3,5-dimethyl-1H-pyrazol-4-yl)pyridine-3-carboxamide] | 7.71
Cn1cnc(-c2ccc(OC3CCN(C(=O)Cc4ccc(OC(C)(F)F)cn4)CC3)c(C(N)=O)c2)c1 [Example 168, 2-[(1-{[5-(1,1-difluoroethoxy)pyridin-2-yl]acetyl}piperidin-4-yl)oxy]-5-(1-methyl-1H-imidazol-4-yl)benzamide] | 7.76
NC(=O)c1cc(-c2cn[nH]c2)ncc1OC1CCN(C(=O)Cc2ccc(OC(F)(F)F)c(F)c2)CC1 [Example 169, 5-[(1-{[3-fluoro-4-(trifluoromethoxy)phenyl]acetyl}piperidin-4-yl)oxy]-2-(1H-pyrazol-4-yl)pyridine-4-carboxamide] | 7.93
Cc1cc(OC2CCN(C(=O)Cc3ccc(OC(F)(F)F)cc3)CC2)c(C(N)=O)cc1-c1cn(C)cn1 [Example 170, 4-methyl-5-(1-methyl-1H-imidazol-4-yl)-2-[(1-{[4-(trifluoromethoxy)phenyl]acetyl}piperidin-4-yl)oxy]benzamide] | 7.75
Cn1cc(-c2ccc(OC3CCN(C(=O)Cc4ccc(OC5CC5)cn4)CC3)c(C(N)=O)c2)cn1 [Example 173, 2-[(1-{[5-(cyclopropyloxy)pyridin-2-yl]acetyl}piperidin-4-yl)oxy]-5-(1-methyl-1H-pyrazol-4-yl)benzamide] | 7.94
NC(=O)c1cc(-c2cn(CCO)nn2)ccc1OC1CCN(C(=O)Cc2ccc(OC(F)(F)F)cc2)CC1 [Example 174, 5-[1-(2-hydroxyethyl)-1H-1,2,3-triazol-4-yl]-2-[(1-{[4-(trifluoromethoxy)phenyl]acetyl}piperidin-4-yl)oxy]benzamide] | 7.72
NC(=O)c1cc(-c2cnn(CCO)c2)ncc1OC1CCN(C(=O)Cc2ccc(OC(F)(F)F)cc2)CC1 [Example 175, 2-[1-(2-hydroxyethyl)-1H-pyrazol-4-yl]-5-[(1-{[4-(trifluoromethoxy)phenyl]acetyl}piperidin-4-yl)oxy]pyridine-4-carboxamide] | 7.77
NC(=O)c1cc(-c2cnn(CCO)c2)cnc1OC1CCN(C(=O)Cc2ccc(OC3CC3)cc2)CC1 [Example 176, 2-[(1-{[4-(cyclopropyloxy)phenyl]acetyl}piperidin-4-yl)oxy]-5-[1-(2-hydroxyethyl)-1H-pyrazol-4-yl]pyridine-3-carboxamide] | 7.91
NC(=O)c1cc(-c2cc[nH]n2)ccc1OC1CCN(C(=O)Cc2ccc(OC(F)(F)F)cc2)CC1 [Example 177, 5-(1H-pyrazol-3-yl)-2-[(1-{[4-(trifluoromethoxy)phenyl]acetyl}piperidin-4-yl)oxy]benzamide] | 7.91
Cn1cc(-c2ccc(OC3CCN(C(=O)Cc4ccc(OC5CC5)cc4)CC3)c(C(N)=O)c2)cn1 [Example 178, 2-[(1-{[4-(cyclopropyloxy)phenyl]acetyl}piperidin-4-yl)oxy]-5-(1-methyl-1H-pyrazol-4-yl)benzamide] | 8.07
Cc1nc[nH]c1-c1cnc(OC2CCN(C(=O)Cc3ccc(OC(F)(F)F)cc3)CC2)c(C(N)=O)c1 [Example 179, 5-(4-methyl-1H-imidazol-5-yl)-2-[(1-{[4-(trifluoromethoxy)phenyl]acetyl}piperidin-4-yl)oxy]pyridine-3-carboxamide] | 7.88
NC(=O)c1cc(-c2cscn2)cnc1OC1CCN(C(=O)Cc2ccc(OC(F)(F)F)cc2)CC1 [Example 180] | 8.08
Cn1cc(-c2ccc(OC3CCN(C(=O)Nc4ccc(OC5CC5)cc4)CC3)c(C(N)=O)c2)cn1 [Example 181, 4-[2-carbamoyl-4-(1-methyl-1H-pyrazol-4-yl)phenoxy]-N-[4-(cyclopropyloxy)phenyl]piperidine-1-carboxamide] | 7.71
Cn1cc(-c2cnc(OC3CCN(C(=O)Cc4ccc(OC(F)(F)F)cc4)CC3)c(C(N)=O)c2)cn1 [Example 182, 5-(1-methyl-1H-pyrazol-4-yl)-2-[(1-{[4-(trifluoromethoxy)phenyl]acetyl}piperidin-4-yl)oxy]pyridine-3-carboxamide] | 7.82
NC(=O)c1cc(-c2c[nH]c(C(F)(F)F)n2)cnc1O[C@@H]1CCN(C(=O)Cc2ccc(OC(F)(F)F)cc2)C[C@@H]1F [Example 183, 2-{[(3S,4R)-3-fluoro-1-{[4-(trifluoromethoxy)phenyl]acetyl}piperidin-4-yl]oxy}-5-[2-(trifluoromethyl)-1H-imidazol-4-yl]pyridine-3-carboxamide] | 8.15
